Values of other authors as cited in patent US20100311674A1, “PHARMACEUTICAL COMPOSITIONS WITH A MECHANISM OF MULTI-TARGET RECEPTOR RETROACTION FOR TREATING DEPRESSION” (Yu-Fen Chi, priority 2007, published 2010).

Assays:
[1] = cited from earlier work
[2] = in the human body; cited from earlier work

Structure (SMILES) | Anti-depression function (in words) ([1]; clinical trials) | Side effect (in words) ([1]; in vivo) | Conversion rate of glycyrrhizic acid to glycyrrhetinic acid [2]
COc1ccc(C2CNC(=O)C2)cc1OC1CCCC1 (stereo not drawn) [Rolipram] | obvious anti-depression function | severe emesis | 
CC1(C)[C@@H](O[C@H]2O[C@H](C(=O)O)[C@@H](O)[C@H](O)[C@H]2O[C@@H]2O[C@H](C(=O)O)[C@@H](O)[C@H](O)[C@H]2O)CC[C@]2(C)[C@H]3C(=O)C=C4[C@@H]5C[C@@](C)(C(=O)O)CC[C@]5(C)CC[C@@]4(C)[C@]3(C)CC[C@@H]12 [glycyrrhizic acid] |  |  | ~100%
